TGI and GI50 data for nine molecules are collected here from PubChem BioAssay (NCI).

Common to all, as to assay: NCI-60 cell line screen, 48 h
Experiment [1] concerns A549 NSCLC.
In experiment [2] the test system is CCRF-CEM leukemia.
The test system of experiment [3] is HS 578T breast.
The subject of experiment [4] is HT29 colon.
The subject of experiment [5] is MCF7 breast.
Experiment [6] has as its system NCI-H23 lung.
In experiment [7] the test system is NCI-H522 lung.
The test system of experiment [8] is OVCAR-3 ovarian.
Experiment [9] relates to SK-OV-3 ovarian.
Experiment [10] has as its system UACC-62 melanoma.

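Cells were grown in 96-well plates and exposed to each compound for 48 hours at five concentrations; endpoints were interpolated linearly between bracketing concentrations, or set to the highest concentration if not reached. GI50: concentration for 50% inhibition of growth. TGI marks complete inhibition of growth.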

On to `O=C(O[C@H]1CCN2C[C@H]3C[C@H](CN4C(=O)CCC[C@H]34)[C@@H]2C1)c1ccc(O)cc1`, for which the TGI in experiment [1], in [2], in [3], in experiment [4], in [5] and in experiment [6] was > 100 µM throughout. For the same molecule, the TGI in experiment [7], in experiment [8], in [9] and in experiment [10] was > 100 µM throughout.

As to `COc1cc(/C=C/C(=O)c2c(C)nc3ccccc3c2C)ccc1OCCCN1CCN(C(=O)c2ccco2)CC1`, the GI50 was 11300 nM in [1]; 3000 nM in [2]; 12 µM in [3]; 7710 nM in experiment [4]; 3800 nM in [5]; 6390 nM in experiment [6]. In addition, the GI50 in experiment [7] is 5.06 µM; in [8], 9.46 µM; in experiment [9], 16.1 µM; in experiment [10] it was 8390 nM. In addition, the TGI came to 27.3 µM in experiment [1]; 17.9 µM in experiment [2]; 51.8 µM in [3]; 23.2 µM in experiment [4]; 15.8 µM in [5]; 24.7 µM in experiment [6]. For the same molecule, the TGI in [7] stood at 23.9 µM; in [8], 21.3 µM; in [9], 52 µM; in experiment [10], 21.7 µM.

Consider `O=C1NC(c2cccc(OCc3ccccc3)c2)Nc2ccccc21` (configuration not stated), for which the TGI in experiment [1] was > 49.6 µM; in experiment [2], 3.99 µM; in experiment [3] it was 9.83 µM; in experiment [4], 0.239 µM; in experiment [5], 15.2 µM; in [6] it was > 100 µM. Besides, the TGI in experiment [7] was 0.636 µM; in experiment [8], 0.558 µM; in experiment [9] it was 5.87 µM; in experiment [10], > 27.1 µM.

For `Cc1nccc2c3ccc(OCc4cn(-c5ccc(Cl)cc5)nn4)cc3n(CC(C)C)c12`, the GI50 in [1] was 2290 nM; in experiment [2], 2040 nM; in [3] it was 2.62 µM; in experiment [4], 1250 nM; in experiment [5], 1450 nM; in experiment [6] it was 1880 nM. For the same molecule, the GI50 in experiment [7] is 4.17 µM; in experiment [8], 5.15 µM; in experiment [9], 4.25 µM; in [10] it was 2310 nM. In addition, the TGI in [1] was 13 µM; in experiment [2], > 33.3 µM; in [3], 30.1 µM; in [4] it was 10.4 µM; in experiment [5] it was 9.29 µM; in [6], 17.2 µM. The TGI in experiment [7] is 15.5 µM; in [8], > 33.3 µM; in experiment [9] it was 16.5 µM; in experiment [10] it was 10.1 µM.

In the case of `O=c1c(Cl)cc2nc3ccccc3sc-2c1Cl`, the TGI in experiment [1] is 40.9 µM; in experiment [2] it was 43.3 µM; in [3], > 100 µM; in [4], 49.2 µM; in [5] it was 32.4 µM; in [6], 28 µM. Besides, the TGI in [7] was found to be 25.9 µM; in experiment [8] it was 5.93 µM; in experiment [9] it was 39 µM; in experiment [10] it was 24.4 µM.

`CCCN1CCC(c2ccc(Nc3nc(Nc4cc(F)ccc4C(N)=O)c4cc[nH]c4n3)c(OC)c2)CC1`: the GI50 is 154 nM in experiment [1]; 1160 nM in experiment [2]; 3.84 µM in experiment [3]; 12.4 nM in experiment [4]; 18.5 nM in experiment [5]; 2220 nM in experiment [6]. Besides, the GI50 in experiment [7] is 3.42 µM; in experiment [8] it was 3.66 µM; in [9], 3.03 µM; in experiment [10] it was 3580 nM. The TGI was 4.68 µM in [1]; 20.3 µM in experiment [2]; 12.3 µM in experiment [3]; 1.06 µM in experiment [4]; 4.23 µM in experiment [5]; 6.5 µM in [6]. The TGI stood at 6.69 µM in experiment [7], 7.25 µM in experiment [8], 6.93 µM in experiment [9] and 7.44 µM in experiment [10].

On to `C/C(=N/Nc1nc(C)cc(=O)[nH]1)C(=O)O`, for which the TGI in experiment [1], in experiment [2], in experiment [3], in experiment [4], in experiment [5] and in [6] was > 100 µM throughout. For the same molecule, the TGI in experiment [7], in experiment [8], in experiment [9] and in experiment [10] was > 100 µM throughout.

`COc1ccc(N(C)c2nc(Cl)nc3cnn(C)c23)cc1`: the GI50 in [1] was < 11.7 nM; in experiment [2], < 14.6 nM; in [3], < 0.01 µM; in experiment [4], < 10 nM; in [5] it was < 10 nM; in experiment [6], < 25.1 nM. Also, the GI50 is < 0.01 µM in experiment [7], < 0.01 µM in experiment [8], < 0.01 µM in experiment [9] and < 10 nM in [10]. The TGI in [1], in experiment [2], in experiment [3], in experiment [4], in experiment [5] and in experiment [6] was > 100 µM each time. Besides, the TGI in experiment [8], in experiment [9] and in experiment [10] was > 100 µM in each case.

Consider `C=CCc1c(O)c(C(=O)/C=C/c2ccccc2)c(OC)c2ccoc12`, for which the GI50 in [1] is 4410 nM; in experiment [2], 2750 nM; in experiment [3] it was 3.89 µM; in experiment [4], 3010 nM; in experiment [5], 2730 nM; in experiment [6], 2520 nM. Also, the GI50 is 2.15 µM in [7], 2.46 µM in [8], 8.08 µM in [9] and 2740 nM in experiment [10]. For the same molecule, the TGI is 22.1 µM in [1]; > 100 µM in experiment [2]; 33.8 µM in experiment [3]; 10.4 µM in experiment [5]; 9.28 µM in [7]; 7.06 µM in [8]. Also, the TGI in [9] worked out at 21.2 µM; in experiment [10], 9.93 µM.
